Measured values reported in the supplement of paper PMC10307832.

The cell lines below were run with O=C(NC1CCNCC1)c1n[nH]cc1NC(=O)c1c(Cl)cccc1Cl [AT-7519] + O=C(c1cc(Cc2n[nH]c(=O)c3ccccc23)ccc1F)N1CCN(C(=O)C2CC2)CC1 [Olaparib] (partner 8 µM) (assay: relative viability (nuclei count vs DMSO), 5 days (fraction); higher = more cells survive). Settings: first compound 0.01 µM.
Method in brief: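 Relative viability equals treated-well nuclei counts divided by vehicle-well nuclei counts. Counts came from 4× images of lung cancer cell lines grown in 1536-well plates for 5 days after pin-tool dosing on the day after seeding. Dosing used one drug alone or a fixed anchor-drug dose plus five library-drug doses (not always all listed) in √10 steps, and values are medians of duplicate plates.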

| Cell Line | relative viability |
| --- | --- |
| NCI-H1666 | 0.674 |
| NCI-H596 | 0.64 |
| LK-2 | 0.815 |
| NCI-H2087 | 0.607 |
| NCI-H1648 | 0.852 |
| SK-MES-1 | 0.662 |
| H3255 | 0.581 |
| COR-L23 | 0.362 |
| COR-L 105 | 0.71 |
| IA-LM | 0.866 |
| LOU-NH91 | 0.911 |
| ChaGo-K-1 | 0.379 |
| NCI-H2170 | 0.585 |
| NCI-H2405 | 0.89 |
| HOP-62 | 0.558 |
| HCC-44 | 1.08 |
| A549 | 0.312 |
| NCI-H522 | 0.75 |
| LU99A | 0.278 |
| BEN | 1.03 |
| HARA | 0.753 |

| Cell Line | relative viability |
| --- | --- |
| SW 900 | 1.06 |
| HCC-78 | 1.01 |
| NCI-H322M | 0.746 |
| LCLC-97TM1 | 0.284 |
| NCI-H2009 | 0.663 |
| A-427 | 0.806 |
| NCI-H441 | 0.524 |
| NCI-H661 | 0.775 |
| NCI-H1734 | 0.535 |
| NCI-H460 | 0.367 |
| NCI-H2347 | 0.619 |
| SK-LU-1 | 0.462 |
| NCI-H1395 | 0.374 |
| 201T | 0.895 |
| NCI-H1915 | 0.25 |
| HCC-827 | 0.635 |
| LXF-289 | 1.09 |
| NCI-H23 | 0.368 |
| NCI-H1299 | 0.97 |
| NCI-H647 | 0.355 |
| CAL-12T | 0.736 |

| Cell Line | relative viability |
| --- | --- |
| NCI-H1651 | 0.201 |
| EPLC-272H | 0.604 |
| NCI-H2228 | 0.54 |
| NCI-H1792 | 0.282 |
| NCI-H1355 | 0.687 |
| NCI-H3122 | 0.664 |
| NCI-H1437 | 0.644 |
| NCI-H1755 | 0.946 |
| NCI-H2023 | 0.46 |
| HCC-15 | 0.712 |
| NCI-H1793 | 0.849 |
| PC-14 | 0.234 |
| EKVX | 0.816 |
| LC-2-ad | 0.75 |
| NCI-H1944 | 0.383 |
| NCI-H1975 | 0.816 |
| RERF-LC-KJ | 0.884 |
| ABC-1 | 1.02 |
| NCI-H358 | 0.608 |
| NCI-H650 | 0.413 |
| PC-3 [JPC-3] | 1.19 |

Same assay, conditions: first compound 0.03162 µM

| Cell Line | relative viability |
| --- | --- |
| NCI-H2342 | 0.427 |
| NCI-H727 | 0.772 |
| NCI-H1650 | 0.776 |
| EBC-1 | 0.773 |
| NCI-H1703 | 0.435 |
| NCI-H1993 | 0.833 |
| SW 1573 | 0.505 |
| NCI-H838 | 0.766 |
| LCLC-103H | 0.805 |
| NCI-H520 | 0.315 |
| NCI-H2126 | 0.935 |
| EMC-BAC-2 | 0.48 |
| NCI-H2085 | 0.806 |
| Calu-6 | 0.641 |
| HCC-366 | 0.424 |
| NCI-H1666 | 0.724 |
| NCI-H596 | 0.733 |
| LK-2 | 0.74 |
| NCI-H2087 | 0.515 |
| SK-MES-1 | 0.791 |
| H3255 | 0.514 |
| COR-L23 | 0.361 |
| COR-L 105 | 0.714 |
| IA-LM | 0.892 |
| LOU-NH91 | 0.899 |
| ChaGo-K-1 | 0.403 |

| Cell Line | relative viability |
| --- | --- |
| NCI-H2170 | 0.59 |
| NCI-H2405 | 0.783 |
| HOP-62 | 0.248 |
| HCC-44 | 1.01 |
| A549 | 0.309 |
| NCI-H522 | 0.595 |
| LU99A | 0.247 |
| BEN | 1.1 |
| HARA | 0.478 |
| SW 900 | 0.8 |
| HCC-78 | 0.758 |
| NCI-H322M | 0.739 |
| LCLC-97TM1 | 0.264 |
| NCI-H2009 | 0.697 |
| A-427 | 0.745 |
| NCI-H441 | 0.559 |
| NCI-H661 | 0.834 |
| NCI-H1734 | 0.585 |
| NCI-H460 | 0.456 |
| NCI-H2347 | 0.506 |
| SK-LU-1 | 0.458 |
| NCI-H1395 | 0.471 |
| 201T | 0.846 |
| NCI-H1915 | 0.273 |
| HCC-827 | 0.815 |
| LXF-289 | 1.15 |

| Cell Line | relative viability |
| --- | --- |
| NCI-H23 | 0.265 |
| NCI-H1299 | 1 |
| NCI-H647 | 0.55 |
| CAL-12T | 0.736 |
| NCI-H1651 | 0.172 |
| EPLC-272H | 0.591 |
| NCI-H2228 | 0.602 |
| NCI-H1792 | 0.313 |
| NCI-H1355 | 0.765 |
| NCI-H3122 | 0.651 |
| NCI-H1437 | 0.643 |
| NCI-H1755 | 0.957 |
| NCI-H2023 | 0.485 |
| HCC-15 | 0.772 |
| NCI-H1793 | 0.774 |
| PC-14 | 0.227 |
| EKVX | 0.758 |
| LC-2-ad | 0.726 |
| NCI-H1944 | 0.424 |
| NCI-H1975 | 0.67 |
| RERF-LC-KJ | 0.964 |
| ABC-1 | 0.646 |
| NCI-H358 | 0.48 |
| NCI-H650 | 0.384 |
| PC-3 [JPC-3] | 1.1 |

Same assay, conditions: first compound 0.3162 µM

| Cell Line | relative viability |
| --- | --- |
| NCI-H2342 | 0.454 |
| NCI-H727 | 0.7 |
| NCI-H1650 | 0.75 |
| EBC-1 | 0.664 |
| NCI-H1703 | 0.388 |
| NCI-H1993 | 0.973 |
| SW 1573 | 0.2 |
| NCI-H838 | 0.576 |
| LCLC-103H | 0.834 |
| NCI-H520 | 0.287 |
| NCI-H2126 | 0.932 |
| EMC-BAC-2 | 0.506 |
| NCI-H2085 | 0.744 |
| Calu-6 | 0.688 |
| HCC-366 | 0.281 |
| NCI-H1666 | 0.68 |
| NCI-H596 | 0.691 |
| LK-2 | 0.706 |
| NCI-H2087 | 0.421 |
| NCI-H1648 | 0.696 |
| SK-MES-1 | 0.56 |
| H3255 | 0.527 |
| COR-L23 | 0.264 |
| COR-L 105 | 0.726 |
| IA-LM | 0.834 |
| LOU-NH91 | 0.931 |

| Cell Line | relative viability |
| --- | --- |
| ChaGo-K-1 | 0.431 |
| NCI-H2170 | 0.608 |
| NCI-H2405 | 0.906 |
| HOP-62 | 0.189 |
| HCC-44 | 0.937 |
| A549 | 0.315 |
| NCI-H522 | 0.664 |
| LU99A | 0.228 |
| BEN | 1.03 |
| HARA | 0.482 |
| SW 900 | 0.622 |
| HCC-78 | 0.806 |
| NCI-H322M | 0.249 |
| LCLC-97TM1 | 0.355 |
| NCI-H2009 | 0.61 |
| A-427 | 0.713 |
| NCI-H441 | 0.446 |
| NCI-H661 | 0.762 |
| NCI-H1734 | 0.537 |
| NCI-H460 | 0.315 |
| NCI-H2347 | 0.561 |
| SK-LU-1 | 0.489 |
| NCI-H1395 | 0.413 |
| 201T | 0.917 |
| NCI-H1915 | 0.292 |
| HCC-827 | 0.659 |

| Cell Line | relative viability |
| --- | --- |
| LXF-289 | 1.02 |
| NCI-H23 | 0.327 |
| NCI-H1299 | 0.935 |
| NCI-H647 | 0.482 |
| CAL-12T | 0.539 |
| NCI-H1651 | 0.163 |
| EPLC-272H | 0.606 |
| NCI-H2228 | 0.569 |
| NCI-H1792 | 0.522 |
| NCI-H1355 | 0.789 |
| NCI-H3122 | 0.627 |
| NCI-H1437 | 0.574 |
| NCI-H1755 | 0.949 |
| NCI-H2023 | 0.386 |
| HCC-15 | 0.73 |
| NCI-H1793 | 0.786 |
| PC-14 | 0.231 |
| EKVX | 0.809 |
| LC-2-ad | 0.736 |
| NCI-H1944 | 0.412 |
| NCI-H1975 | 0.641 |
| RERF-LC-KJ | 0.659 |
| ABC-1 | 0.608 |
| NCI-H358 | 0.36 |
| NCI-H650 | 0.439 |
| PC-3 [JPC-3] | 1.09 |

Same assay, conditions: first compound 1 µM

| Cell Line | relative viability |
| --- | --- |
| NCI-H2342 | 0.443 |
| NCI-H727 | 0.365 |
| NCI-H1650 | 0.193 |
| EBC-1 | 0.546 |
| NCI-H1703 | 0.175 |
| NCI-H1993 | 0.769 |
| SW 1573 | 0.0972 |
| NCI-H838 | 0.0987 |
| LCLC-103H | 0.833 |
| NCI-H520 | 0.201 |
| NCI-H2126 | 0.874 |
| EMC-BAC-2 | 0.56 |
| NCI-H2085 | 0.724 |
| Calu-6 | 0.262 |
| HCC-366 | 0.164 |
| NCI-H1666 | 0.65 |
| NCI-H596 | 0.644 |
| LK-2 | 0.593 |
| NCI-H2087 | 0.0663 |
| NCI-H1648 | 0.49 |
| SK-MES-1 | 0.257 |
| H3255 | 0.451 |
| COR-L23 | 0.102 |
| COR-L 105 | 0.564 |
| IA-LM | 0.631 |
| LOU-NH91 | 0.785 |

| Cell Line | relative viability |
| --- | --- |
| ChaGo-K-1 | 0.403 |
| NCI-H2170 | 0.562 |
| NCI-H2405 | 0.606 |
| HOP-62 | 0.373 |
| HCC-44 | 1.02 |
| A549 | 0.368 |
| NCI-H522 | 0.498 |
| LU99A | 0.229 |
| BEN | 0.809 |
| HARA | 0.301 |
| SW 900 | 0.371 |
| HCC-78 | 0.666 |
| NCI-H322M | 0.643 |
| LCLC-97TM1 | 0.294 |
| NCI-H2009 | 0.707 |
| A-427 | 0.382 |
| NCI-H441 | 0.204 |
| NCI-H661 | 0.251 |
| NCI-H1734 | 0.263 |
| NCI-H460 | 0.18 |
| NCI-H2347 | 0.41 |
| SK-LU-1 | 0.324 |
| NCI-H1395 | 0.419 |
| 201T | 0.666 |
| NCI-H1915 | 0.208 |
| HCC-827 | 0.54 |

| Cell Line | relative viability |
| --- | --- |
| LXF-289 | 1.06 |
| NCI-H23 | 0.173 |
| NCI-H1299 | 1.09 |
| NCI-H647 | 0.189 |
| CAL-12T | 0.163 |
| NCI-H1651 | 0.204 |
| EPLC-272H | 0.0569 |
| NCI-H2228 | 0.208 |
| NCI-H1792 | 0.311 |
| NCI-H1355 | 0.68 |
| NCI-H3122 | 0.579 |
| NCI-H1437 | 0.279 |
| NCI-H1755 | 0.854 |
| NCI-H2023 | 0.128 |
| HCC-15 | 0.355 |
| NCI-H1793 | 0.546 |
| PC-14 | 0.104 |
| EKVX | 0.995 |
| LC-2-ad | 0.622 |
| NCI-H1944 | 0.337 |
| NCI-H1975 | 0.15 |
| RERF-LC-KJ | 0.242 |
| ABC-1 | 0.454 |
| NCI-H358 | 0.11 |
| NCI-H650 | 0.349 |
| PC-3 [JPC-3] | 0.981 |
